The text below walks through data of the Kinase Knowledgebase extract (Sharma et al. 2016).

For the assay, the target named is PIK3CA (human) (UniProt P42336). Nature of the assay: Assessment of PIK3CA Kinase Activity.
Chain of PIK3CA (human) (P42336 whole entry, looked up): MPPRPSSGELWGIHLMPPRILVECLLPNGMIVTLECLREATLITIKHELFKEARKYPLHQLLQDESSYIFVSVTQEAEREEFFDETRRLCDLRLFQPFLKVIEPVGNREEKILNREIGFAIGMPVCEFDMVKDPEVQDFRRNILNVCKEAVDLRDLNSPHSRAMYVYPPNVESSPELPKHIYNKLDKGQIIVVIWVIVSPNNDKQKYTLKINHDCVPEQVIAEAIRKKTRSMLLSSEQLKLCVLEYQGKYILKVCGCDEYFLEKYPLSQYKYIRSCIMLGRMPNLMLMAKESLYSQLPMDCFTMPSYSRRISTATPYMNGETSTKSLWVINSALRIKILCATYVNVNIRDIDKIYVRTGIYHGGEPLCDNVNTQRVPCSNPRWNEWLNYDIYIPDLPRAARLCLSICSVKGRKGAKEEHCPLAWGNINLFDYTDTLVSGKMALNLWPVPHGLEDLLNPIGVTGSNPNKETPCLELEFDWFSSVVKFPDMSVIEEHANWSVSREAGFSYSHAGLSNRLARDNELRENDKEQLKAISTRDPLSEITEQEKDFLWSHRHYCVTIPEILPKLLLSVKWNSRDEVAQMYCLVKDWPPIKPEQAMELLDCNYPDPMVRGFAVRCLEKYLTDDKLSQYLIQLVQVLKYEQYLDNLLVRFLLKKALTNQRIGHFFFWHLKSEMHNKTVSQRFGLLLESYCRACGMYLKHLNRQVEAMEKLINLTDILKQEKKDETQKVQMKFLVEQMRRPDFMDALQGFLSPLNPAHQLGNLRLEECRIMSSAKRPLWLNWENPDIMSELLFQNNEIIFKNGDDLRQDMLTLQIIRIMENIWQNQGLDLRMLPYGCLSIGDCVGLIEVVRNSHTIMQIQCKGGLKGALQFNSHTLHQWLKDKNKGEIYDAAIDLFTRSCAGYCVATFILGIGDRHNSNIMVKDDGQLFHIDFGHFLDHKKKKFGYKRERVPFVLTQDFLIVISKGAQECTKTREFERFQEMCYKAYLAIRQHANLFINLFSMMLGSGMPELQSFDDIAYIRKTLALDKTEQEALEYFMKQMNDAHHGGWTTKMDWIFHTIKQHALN
In the case of `CN(C)C1CCN(C(=O)c2ccc(NC(=O)Nc3ccc(-c4nc(N5CCOCC5)c5ccc(C(C)(C)O)cc5n4)cc3)cc2)CC1`, the IC50 is under 50 nM.
With `CN1CCN(C(=O)c2ccc(NC(=O)Nc3ccc(-c4nc(N5CCOCC5)c5ncc(-c6cnn(C)c6)cc5n4)cc3)cc2)CC1` the figure was under 50 nM.
With `CN(C)C(=O)c1ccc(NC(=O)Nc2ccc(-c3nc(N4CCOCC4)c4ccc(C(C)(C)O)cc4n3)cc2)cc1` the figure was under 50 nM; with `CN(C)C(=O)c1ccc(NC(=O)Nc2ccc(-c3nc(N4CCOCC4)c4cc(F)c(-c5cncc(S(C)(=O)=O)c5)cc4n3)cc2)cc1`, under 50 nM; with `CN(C)Cc1ccc(-c2ccc3c(N4CCOCC4)nc(-c4ccc(NC(=O)Nc5ccc(C(=O)N(C)C)cc5)cc4)nc3c2)o1`, 50 to 200 nM.
The value for `CN(C)CCn1cc(-c2ccc3c(N4CCOCC4)nc(-c4ccc(NC(=O)Nc5ccc(C(=O)N(C)C)cc5)cc4)nc3c2)cn1` was 50 to 200 nM.
In turn, `CNC(=O)c1ccc(NC(=O)Nc2ccc(-c3nc(N4CCOCC4)c4ncc(-c5cnn(C)c5)cc4n3)cc2)cc1` gave an IC50 of under 50 nM.
`CNC(=O)c1ccc(NC(=O)Nc2ccc(-c3nc(N4CCOCC4)c4ccc(-c5ccco5)cc4n3)cc2)cc1` registered an IC50 of under 50 nM.
With `CN(C)C(=O)c1ccc(NC(=O)Nc2ccc(-c3nc(N4CCOCC4)c4ncc(-c5cccnc5F)cc4n3)cc2)cc1F` the figure was under 50 nM; with `CN(C)C(=O)c1ccc(NC(=O)Nc2ccc(-c3nc(N4CCOCC4)c4cc(F)c(-c5cncnc5)cc4n3)c(F)c2)cc1`, 50 to 200 nM; with `CN(C)C(=O)c1ccc(NC(=O)Nc2ccc(-c3nc(N4CCOCC4)c4ccc(C(C)(C)O)cc4n3)cc2F)cc1`, 50 to 200 nM.
With `CN(C)C(=O)c1ccc(NC(=O)Nc2ccc(-c3nc(N4CCOCC4)c4ccc(-c5cnc6ccccc6c5)cc4n3)cc2)cc1` the figure was under 50 nM; with `Cc1ccc(-c2ccc3c(N4CCOCC4)nc(-c4ccc(NC(=O)Nc5ccc(C(=O)N(C)C)nc5)nc4)nc3c2)o1`, under 50 nM; with `CN(C)C(=O)c1ccc(NC(=O)Nc2ccc(-c3nc(N4CCOCC4)c4ccc(-c5cnn(C)c5)cc4n3)c(F)c2)cc1`, 50 to 200 nM.
`CN(C)C(=O)c1ccc(NC(=O)Nc2ccc(-c3nc(N4CCOCC4)c4cc(F)c(-c5cccnc5F)cc4n3)cc2)cc1` had an IC50 of under 50 nM.
The value for `CN(C)[C@@H]1CCN(C(=O)c2ccc(NC(=O)Nc3ccc(-c4nc(N5CCOCC5)c5ncc(-c6cnn(C)c6)cc5n4)cc3)cc2)C1` was under 50 nM; that for `CN(C)[C@H]1CCN(C(=O)c2ccc(NC(=O)Nc3ccc(-c4nc(N5CCOCC5)c5ncc(-c6cncnc6)cc5n4)cc3)cc2)C1` was under 50 nM.
`CN(C)[C@H]1CCN(C(=O)c2ccc(NC(=O)Nc3ccc(-c4nc(N5CCOCC5)c5ccc(-c6cncnc6)cc5n4)cc3F)cc2)C1` came in with an IC50 of under 50 nM.
With `CN(C)C1CCN(C(=O)c2ccc(NC(=O)Nc3ccc(-c4nc(N5CCOCC5)c5ncc(-c6cnn(C)c6)cc5n4)cc3)cc2)CC1` the figure was under 50 nM; with `COc1ncc(-c2ccc3c(N4CCOCC4)nc(-c4ccc(NC(=O)Nc5ccc(C(=O)N(C)C)cc5)cc4)nc3c2)cn1`, under 50 nM.
Compound `CN(C)C(=O)c1ccc(NC(=O)Nc2ccc(-c3nc(N4CCOCC4)c4cc(F)c(-c5ccco5)cc4n3)cc2)cc1` yielded an IC50 of 50 to 200 nM.
As to `CN(C)C(=O)c1ccc(NC(=O)Nc2ccc(-c3nc(N4CCOCC4)c4ncc(-c5cncnc5)cc4n3)cc2)cc1`, the IC50 is under 50 nM.
Compound `CN(C)C(=O)c1ccc(NC(=O)Nc2ccc(-c3nc(N4CCOCC4)c4cccc(-c5cccc(O)c5)c4n3)cc2)cc1` registered an IC50 of 50 to 200 nM.
The value for `CN(C)[C@H]1CCN(C(=O)c2ccc(NC(=O)Nc3ccc(-c4nc(N5CCOCC5)c5cc(F)c(-c6cccnc6)cc5n4)cc3)cc2)C1` was under 50 nM.
`CN(C)CCN(C)C(=O)c1ccc(NC(=O)Nc2ccc(-c3nc(N4CCOCC4)c4ccc(-c5ccncc5)cc4n3)cc2)cc1` displayed a half-inhibitory concentration (IC50) of under 50 nM.
With `CC(O)c1ccc(-c2ccc3c(N4CCOCC4)nc(-c4ccc(NC(=O)Nc5ccc(C(=O)N(C)C)cc5)cc4)nc3c2)o1` (stereo unspecified) the figure was under 50 nM; with `N[C@@H]1CCN(C(=O)c2ccc(NC(=O)Nc3ccc(-c4nc(N5CCOCC5)c5ccc(-c6cncnc6)cc5n4)cc3)cc2)C1`, under 50 nM; with `CN(C)C(=O)c1ccc(NC(=O)Nc2ccc(-c3nc(N4CCOCC4)c4cc(F)c(-c5cccc(S(C)(=O)=O)c5)cc4n3)cc2)cc1`, under 50 nM.
With `CN(C)C(=O)c1ccc(NC(=O)Nc2ccc(-c3nc(N4CCOCC4)c4cc(F)c(-c5cccnc5F)cc4n3)cn2)cc1` the figure was under 50 nM; with `CN(C)C(=O)c1ccc(NC(=O)Nc2ccc(-c3nc(N4CCOCC4)c4ncc(-c5cnc(N)nc5)cc4n3)cc2)cc1`, under 50 nM; with `CN(C)C(=O)c1ccc(NC(=O)Nc2ccc(-c3nc(N4CCOCC4)c4ncc(-c5cnc(N)nc5)cc4n3)cc2F)cc1`, under 50 nM.
Regarding `COc1ccc(-c2ccc3c(N4CCOCC4)nc(-c4ccc(NC(=O)Nc5ccc(C(=O)N(C)C)cc5)cc4)nc3c2)cn1`, the IC50 was under 50 nM.
The value for `CN(C)C(=O)c1ccc(NC(=O)Nc2ccc(-c3nc(N4CCOCC4)c4ccc(-c5cncnc5)cc4n3)cn2)c(F)c1` was under 50 nM.
In turn, `CN(C)C(=O)c1ccc(NC(=O)Nc2ccc(-c3nc(N4CCOCC4)c4ccc(-c5cnn(C)c5)cc4n3)cc2F)cc1` returned an IC50 of under 50 nM.
As for `N[C@@H]1CCN(C(=O)c2ccc(NC(=O)Nc3ccc(-c4nc(N5CCOCC5)c5ccc(-c6cncnc6)cc5n4)cc3F)cc2)C1`, the IC50 is under 50 nM.
With `CN1CCN(C(=O)c2ccc(NC(=O)Nc3ccc(-c4nc(N5CCOCC5)c5ccc(-c6ccsc6)cc5n4)cc3)cc2)CC1` the figure was 50 to 200 nM; with `CNC(=O)c1ccc(NC(=O)Nc2ccc(-c3nc(N4CCOCC4)c4ccc(-c5cccc(S(C)(=O)=O)c5)cc4n3)cc2)cc1`, under 50 nM; with `COc1ncc(-c2ccc3c(N4CCOCC4)nc(-c4ccc(NC(=O)Nc5ccc(C(=O)N(C)C)cc5)cc4F)nc3c2)cn1`, under 50 nM.
With `Cc1noc(C)c1-c1cc2nc(-c3ccc(NC(=O)Nc4ccc(C(=O)N(C)C)cc4)cc3)nc(N3CCOCC3)c2cc1F` the figure was 50 to 200 nM; with `CN1CCN(C(=O)c2ccc(NC(=O)Nc3ccc(-c4nc(N5CCOCC5)c5ccc(-c6ccco6)cc5n4)cc3)cc2)CC1`, under 50 nM; with `CN(C)C(=O)c1ccc(NC(=O)Nc2ccc(-c3nc(N4CCOCC4)c4cc(F)c(-c5cccnc5)cc4n3)cn2)cc1`, under 50 nM.
With `CNC(=O)c1ccc(NC(=O)Nc2ccc(-c3nc(N4CCOCC4)c4ccc(-c5cncnc5)cc4n3)cc2F)cc1` the figure was 50 to 200 nM; with `CN(C)C(=O)c1ccc(NC(=O)Nc2ccc(-c3nc(N4CCOCC4)c4ncc(-c5cccnc5)cc4n3)cc2)cc1`, under 50 nM; with `CN(C)[C@@H]1CCN(C(=O)c2ccc(NC(=O)Nc3ccc(-c4nc(N5CCOCC5)c5ccc(C(C)(C)O)cc5n4)cc3)cc2)C1`, 50 to 200 nM.
The compound `CN(C)C(=O)c1ccc(NC(=O)Nc2ccc(-c3nc(N4CCOCC4)c4ncc(-c5cccnc5F)cc4n3)cc2)cc1` showed an IC50 of under 50 nM.
The value for `CN(C)C(=O)c1ccc(NC(=O)Nc2ccc(-c3nc(N4CCOCC4)c4ncc(-c5ccc(CO)o5)cc4n3)cc2F)cc1` was under 50 nM; that for `COc1ncc(-c2cnc3c(N4CCOCC4)nc(-c4ccc(NC(=O)Nc5ccc(C(=O)N(C)C)cc5)c(F)c4)nc3c2)cn1` was under 50 nM.
The value for `CN(C)CCN(C)C(=O)c1ccc(NC(=O)Nc2ccc(-c3nc(N4CCOCC4)c4ccc(-c5cncnc5)cc4n3)cc2)cc1` was under 50 nM; that for `CN(C)C(=O)c1ccc(NC(=O)Nc2ccc(-c3nc(N4CCOCC4)c4ncc(-c5cnn(C)c5)cc4n3)c(F)c2)cc1` was under 50 nM.
Regarding `Cc1noc(C)c1-c1ccc2c(N3CCOCC3)nc(-c3ccc(NC(=O)Nc4ccc(C(=O)N(C)C)c(F)c4)cc3)nc2c1`, the IC50 was in the range of 50 to 200 nM.
The compound `CN(C)C(=O)c1ccc(NC(=O)Nc2ccc(-c3nc(N4CCOCC4)c4ccc(-c5ccc(N)nc5)cc4n3)cc2)c(F)c1` returned an IC50 of 50 to 200 nM.
`CN(C)C(=O)c1ccc(NC(=O)Nc2ccc(-c3nc(N4CCOCC4)c4ccc(-c5ccncc5F)cc4n3)cc2)cc1`: the concentration for half-maximal inhibition (IC50) was under 50 nM.
As for `CN(C)C(=O)c1ccc(NC(=O)Nc2ccc(-c3nc(N4CCOCC4)c4ccc(-c5ccc(C#N)o5)cc4n3)c(F)c2)cc1`, the half-maximal inhibitory concentration (IC50) is under 50 nM.
As for `CN(C)C(=O)c1ccc(NC(=O)Nc2ccc(-c3nc(N4CCOCC4)c4ccc(-c5cccc(NS(C)(=O)=O)c5)cc4n3)cc2)cc1`, the IC50 is under 50 nM.
As for `Cc1ccc(-c2cccc3c(N4CCOCC4)nc(-c4ccc(NC(=O)Nc5ccc(C(=O)N(C)C)cc5)cc4)nc23)o1`, the half-inhibitory concentration (IC50) is 50 to 200 nM.
The value for `CN(C)C(=O)c1ccc(NC(=O)Nc2ccc(-c3nc(N4CCOCC4)c4ccc(-c5ccc(C#N)o5)cc4n3)cc2)cc1` was under 50 nM; that for `CN(C)C(=O)c1ccc(NC(=O)Nc2ccc(-c3nc(N4CCOCC4)c4ccc(-c5ccco5)cc4n3)cc2F)cc1` was 50 to 200 nM.
`CN(C)C(=O)c1ccc(NC(=O)Nc2ccc(-c3nc(N4CCOCC4)c4ccc(-c5cccnc5)cc4n3)cc2)cc1F`: the IC50 was under 50 nM.
The value for `Cc1ccc(-c2ccc3c(N4CCOCC4)nc(-c4ccc(NC(=O)Nc5ccc(C(=O)N(C)C)cc5)cc4F)nc3c2)o1` was 50 to 200 nM.
Regarding `CN1CCN(C(=O)c2ccc(NC(=O)Nc3ccc(-c4nc(N5CCOCC5)c5ccc(-c6ccncc6)cc5n4)cc3F)cc2)CC1`, the 50% inhibitory concentration (IC50) lay in the range of 50 to 200 nM.
The compound `CN(C)C(=O)c1ccc(NC(=O)Nc2ccc(-c3nc(N4CCOCC4)c4ncc(-c5cccnc5)cc4n3)c(F)c2)cc1` had an IC50 of under 50 nM.
`CN(C)C(=O)c1ccc(NC(=O)Nc2ccc(-c3nc(N4CCOCC4)c4ncc(-c5cccnc5F)cc4n3)c(F)c2)cc1` gave a 50% inhibitory concentration (IC50) of under 50 nM.
In turn, `CN(C)[C@H]1CCN(C(=O)c2ccc(NC(=O)Nc3ccc(-c4nc(N5CCOCC5)c5ccc(-c6cncnc6)cc5n4)cc3)cc2)C1` showed an IC50 of under 50 nM.
The value for `COc1ccncc1-c1ccc2c(N3CCOCC3)nc(-c3ccc(NC(=O)Nc4ccc(C(=O)N(C)C)cc4)cc3)nc2c1` was under 50 nM.
The value for `COc1cc2nc(-c3ccc(NC(=O)Nc4ccc(C(=O)N(C)C)cc4)cc3)nc(N3CCOCC3)c2cc1OC` was 50 to 200 nM; that for `CN(C)C1CCN(C(=O)c2ccc(NC(=O)Nc3ccc(-c4nc(N5CCOCC5)c5ccc(-c6cccnc6F)cc5n4)cn3)cc2)CC1` was under 50 nM.
